According to patent US11400088B2, “Uses of compound in preparation of drugs for treating brain glioma” (BEIJING PEARL BIOTECHNOLOGY LIMITED LIABILITY COMPANY, priority 2015, dated 2022):

Assays:
[1] = system: human glioma cell line U87; assay: MTT inhibition of glioblastoma cell proliferation, U87 initial cells; format: cell-based; settings: 72 hours, read-out: Inhibitory activities (IC50, μM) of tested compounds on cells
Procedure: The compound represented by formula A and crizotinib as well as compounds represented by formulas B to H that respectively have a structure similar to the structure of formula A were employed to carry out the experiment of testing the activity of inhibiting glioblastoma cell proliferation.
(§1) The U87 cells were infected with any of the lentiviruses as prepared above and screened by applying puromycin (0.5 μg/mL for screening, and 0.2 μg/mL for maintenance) to establish cell models which stably expressed the fusion proteins. The cell models were verified for the expression of the fusion proteins and the transcription of the fusion genes by immunoblotting and reverse transcription PCR, and cell lines which stably expressed fusion proteins ZM1-2 and ZM2-2 respectively were obtained finally and named as “PCDH-ZM1-2 expressing cells” and “PCDH-ZM2-2 expressing cells” respectively. Similarly, U87 cells were infected with the lentivirus PCDH-blank with the blank vector to obtain “PCDH-blank expressing cells” as a blank reference.
(§2) Those U87 cells which were cultured in a large dish and were in a logarithmic stage were washed once with sterile PBS, and then digested with 0.25% trypsin for 2 min. After all cells were digested to detach, complete DMEM medium containing 10% fetal bovine serum (FBS) was used to stop the digestion. The cells were counted and the cell concentration was adjusted to 20,000 cells/ml. Then, the cells were seeded into a Corning 96-well plate (2,000 cells/well) using a multi-channel pipette, and incubated in a 5% CO2 incubator at 37° C. for 24 hours. The compounds to be tested (crizotinib and the compounds represented by formulas A to H) were respectively dissolved in DMSO to prepare stock solutions, and then the stock solutions and the complete medium were used to prepare solutions with different concentrations of medicaments (0, 5, 10, 20, 40, 60, 80, 100 μM). The cells were incubated in the incubator for additional 72 hours, and then 20 μl of 3-(4,5-dimethylthiazole-2)-2,5-diphenyl tetrazolium bromide (MTT) was added into each well. After 1-3 hours in the incubator, the absorbance at 490 nm was determined using a microplate reader. The inhibition rate corresponding to each concentration was calculated, and the value of IC50 was calculated with GraphPad software.

[2] = system: PCDH-blank expressing cells (U87); assay: MTT inhibition of glioblastoma cell proliferation, blank reference cells; format: cell-based; settings: Homo sapiens, U-87 MG, 72 hours, read-out: Inhibitory activities (IC50, μM) of tested compounds on cells
Excerpt: (§3) First, a lentiviral vector PCDH (PCDH-EF1-MCS-T2A-Puro, SBI, product No.: CD510B-1, structure shown in FIG. 4) was used, and the nucleotide sequence as shown by SEQ ID NO: 7 or SEQ ID NO: 8 was cloned into the vector according to the instructions thereof, to prepare expression vectors which expressed fusion proteins respectively represented by SEQ ID NO: 3 and SEQ ID NO: 4. The expression vectors were respectively named and marked as “PCDH-ZM1-2” and “PCDH-ZM2-2”. Then, a viral packaging plasmid (SBI, product No. LV500A-1) was used to co-infect 293T cells with one of the vectors to prepare a lentivirus. The same method was performed to package the lentiviral vector PCDH and co-infect 293T cells, to prepare a lentivirus with the blank vector, which was named as “PCDH-blank”.
as §1, §2

[3] = system: PCDH-ZM1-2 expressing cells (U87); assay: MTT inhibition of glioblastoma cell proliferation, ZM1-2 fusion protein expressing cells; format: cell-based; settings: Homo sapiens, 72 hours, read-out: Inhibitory activities (IC50, μM) of tested compounds on cells
Excerpt: as §3, §1, §2

[4] = system: PCDH-ZM2-2 expressing cells (U87); assay: MTT inhibition of glioblastoma cell proliferation, ZM2-2 fusion protein expressing cells; format: cell-based; settings: Homo sapiens, 72 hours, read-out: Inhibitory activities (IC50, μM) of tested compounds on cells
Excerpt: as §3, §1, §2

[5] = system: PCDH-ZM2-2 expressing cells; assay: Inhibition of subcutaneous tumor growth in ZM2-2 mice (1); format: in vivo, BALB/c (nu/nu) nude mice; settings: 10 mg/KG/day by gavage, vs normal saline, FIG. 5
Procedure: First, a tumor-bearing mouse model was established. BALB/c (nu/nu) maternal nude mice, aged 6-8 weeks, with a weight of about 16-18 g were purchased from Vital River. “PCDH-blank expressing cells” and “PCDH-ZM2-2 expressing cells” prepared in Example 4 were prepared into suspensions of 10^7 cells/ml with PBS respectively. Nude mice sterilized with 75% ethanol were subcutaneously injected with 100 μl of the cell suspensions at the right scapular area, in which the PCDH-blank expressing cells were injected into seven nude mice, and PCDH-ZM2-2 expressing cells were injected into 21 nude mice. […] The tumor size and variations in mouse weight were measured twice a week. […]
When the tumors grew to have a volume of about 100 mm^3, the ZM2-2 mice (1) were divided into three groups according to mean tumor size, including a group of 7 mice which were administered with the compound represented by formula A, a group of 7 mice which were administered with crizotinib, and a control group of 7 mice. […] The tumor size and variations in mouse weight were measured twice a week. The tumor diameter was measured with a vernier caliper, and the equation for calculating tumor volume was: tumor volume=0.5*Length*Width^2.

[6] = system: PCDH-ZM2-2 expressing cells; assay: Intracranial tumor model, survival and brain MRI, ZM2-2 mice (2); format: in vivo, nude mice
Procedure: (§4) First, a tumor-bearing mouse model was established. “PCDH-blank expressing cells” and “PCDH-ZM2-2 expressing cells” prepared in Example 4 were prepared into suspensions of 10^5 cells/5 μl with PBS respectively. Nude mice sterilized with 75% ethanol were inoculated with […] the cell suspensions. The cell inoculation position (2 mm away on the right side of anterior fontanel, and 2 mm backward) was determined using a brain stereotaxic apparatus for mouse; the injection depth was 3.5 mm and then elevated by 0.6 mm; and 5 μl of cell solutions respectively was injected to each mouse. After injection, the mice were kept still for 1 min, and then received a conventional skin closure. After intracranial tumors were observed, the tumor-bearing mice obtained with the “PCDH-blank expressing cells” were named as “vector mice (2)”, and the tumor-bearing mice obtained with the “PCDH-ZM2-2 expressing cells” were named as “ZM2-2 mice (2)”.
(§5) 8 Vector mice (2) and 8 ZM2-2 mice (2) were respectively administered with the compound represented by the formula A at a dose of 50 mg/KG weight/day. The compound was administrated once a day by gavage. At the same time, another group of 8 ZM2-2 mice (2) were given with normal saline, as a control group. The experiment lasted for over 6 weeks.
The brains of ZM2-2 mice (2) given with the compound represented by formula A were detected by nuclear magnetic resonance imaging on the 16th day after the compound represented by formula A was administered for the first time. […] See results in panel 7C.
Another 8 ZM2-2 mice (2) were also administered with the compound represented by formula A at a dose of 50 mg/KG weight/day. The compound was administrated once a day by gavage. Then, the compound administration was stopped on the 16th day after the first administration, and the brains were detected through nuclear magnetic resonance imaging on the 10th day after the compound withdrawal. […] Results are shown in panel 7D.

[7] = system: PCDH-blank expressing cells; assay: Intracranial tumor model, survival, vector mice (2); format: in vivo, nude mice; settings: 50 mg/KG weight/day by gavage, over 6 weeks, FIG. 6
Procedure: as §4, §5

Row | Compound | IC50 [1] | IC50 [2] | IC50 [3] | IC50 [4] | growth of tumors (tumor volume) [5] | intracranial tumor growth after compound withdrawal by nuclear magnetic resonance imaging ([6]; 50 mg/KG weight/day stopped on 16th day, imaged 10th day after withdrawal, panel 7D) | intracranial tumor size by nuclear magnetic resonance imaging ([6]; 50 mg/KG weight/day, 16th day after first administration, panel 7C) | survival time of mice ([6]; intracranial, 50 mg/KG weight/day by gavage, over 6 weeks, FIG. 6) | survival of mice [7]
1 | Nc1nc2cc(F)c(Cc3nnc4ccc(-c5cnn(C6CC6)c5)nn34)cc2s1 [Formula H] | 25.4 µM | 19.4 µM | 23.3 µM | 45.1 µM | – | – | – | – | –
2 | CNC(=O)c1c(F)cc(-c2ccc3nnc(C(F)(F)c4cc5cn(C)nc5cc4F)n3n2)cc1F [Formula B] | 8.15 µM | 6.02 µM | 7.63 µM | 5.59 µM | – | – | – | – | –
3 | Cn1cc2cc(C(F)(F)c3nnc4ccc(-c5cnn(C6CC6)c5)cn34)c(F)cc2n1 [Formula F] | 64.4 µM | 58.8 µM | 90.3 µM | 125 µM | – | – | – | – | –
4 | Cn1cc2cc(C(F)(F)c3nnc4ccc(-c5cnn(C6CC6)c5)nn34)c(F)cc2n1 [Formula A] | 3.51 µM | 2.85 µM | 1.34 µM | 1.83 µM | significantly inhibit the growth of tumors | resumed rapid growth | obviously became smaller | obviously prolonged the survival time | all survived
5 | Cn1cc2cc(C(F)(F)c3nnc4ncc(-c5cnn(C6CC6)c5)cn34)c(F)cc2n1 [Formula G] | 9.07 µM | 9.25 µM | 6.75 µM | 15.2 µM | – | – | – | – | –
6 | Cn1cc2cc(C(F)(F)c3nnc4ccc(-c5ccc(NC(=O)C6CC6)c(F)c5)nn34)c(F)cc2n1 [Formula C] | 4.78 µM | 5.79 µM | 9.45 µM | 12.8 µM | – | – | – | – | –
7 | CC(C)n1cc(-c2ccc3nnc(C(F)(F)c4cc5cn(C)nc5cc4F)n3n2)cn1 [Formula E] | 17.2 µM | 21.6 µM | 32.6 µM | 21.9 µM | – | – | – | – | –
8 | Cn1cc(-c2ccc3nnc(C(F)(F)c4cc5cn(C)nc5cc4F)n3n2)cn1 [Formula D] | 5.56 µM | 4.93 µM | 5.22 µM | 7.21 µM | – | – | – | – | –
9 | C[C@@H](Oc1cc(-c2cnn(C3CCNCC3)c2)cnc1N)c1c(Cl)ccc(F)c1Cl [Crizotinib] | 2.99 µM | 3.27 µM | 8.26 µM | 9.76 µM | – | – | – | – | –
